Key:
[1] = target: Mer (phospho-Mer, MERTK-transfected 293A cells) (Homo sapiens (Human), UniProt Q12866); assay: Mer autophosphorylation ELISA in transient transfected 293A cells (Example H); assay type: cell-based; settings: cellular activity; Mer autophosphorylation ELISA in transient transfected 293A cells
Outline: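 Inhibition of cellular Mer autophosphorylation is determined in 293A cells transiently expressing human MERTK after 1 h compound exposure (8 concentrations, serum-free, 0.3% DMSO). Phospho-Mer in clarified lysates is measured by ELISA, with DMSO and reference-inhibitor wells defining the 100% and 0% activity limits.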

[2] = target: Human Met (residues R974-S1390 with A1209G and V1290L) (Homo sapiens, UniProt P08581); assay: Human Met kinase assay, 33P-phosphoryl transfer radiometric (Example D-1, KinaseProfiler); assay type: biochemical; settings: protocol of Example D-1 (compounds 21-27, 41-47, 99, 104); read-out: c-Met IC50
Human Met (residues R974-S1390 with A1209G and V1290L), sequence (P08581 25-1390 limits assumed, stated change not applied): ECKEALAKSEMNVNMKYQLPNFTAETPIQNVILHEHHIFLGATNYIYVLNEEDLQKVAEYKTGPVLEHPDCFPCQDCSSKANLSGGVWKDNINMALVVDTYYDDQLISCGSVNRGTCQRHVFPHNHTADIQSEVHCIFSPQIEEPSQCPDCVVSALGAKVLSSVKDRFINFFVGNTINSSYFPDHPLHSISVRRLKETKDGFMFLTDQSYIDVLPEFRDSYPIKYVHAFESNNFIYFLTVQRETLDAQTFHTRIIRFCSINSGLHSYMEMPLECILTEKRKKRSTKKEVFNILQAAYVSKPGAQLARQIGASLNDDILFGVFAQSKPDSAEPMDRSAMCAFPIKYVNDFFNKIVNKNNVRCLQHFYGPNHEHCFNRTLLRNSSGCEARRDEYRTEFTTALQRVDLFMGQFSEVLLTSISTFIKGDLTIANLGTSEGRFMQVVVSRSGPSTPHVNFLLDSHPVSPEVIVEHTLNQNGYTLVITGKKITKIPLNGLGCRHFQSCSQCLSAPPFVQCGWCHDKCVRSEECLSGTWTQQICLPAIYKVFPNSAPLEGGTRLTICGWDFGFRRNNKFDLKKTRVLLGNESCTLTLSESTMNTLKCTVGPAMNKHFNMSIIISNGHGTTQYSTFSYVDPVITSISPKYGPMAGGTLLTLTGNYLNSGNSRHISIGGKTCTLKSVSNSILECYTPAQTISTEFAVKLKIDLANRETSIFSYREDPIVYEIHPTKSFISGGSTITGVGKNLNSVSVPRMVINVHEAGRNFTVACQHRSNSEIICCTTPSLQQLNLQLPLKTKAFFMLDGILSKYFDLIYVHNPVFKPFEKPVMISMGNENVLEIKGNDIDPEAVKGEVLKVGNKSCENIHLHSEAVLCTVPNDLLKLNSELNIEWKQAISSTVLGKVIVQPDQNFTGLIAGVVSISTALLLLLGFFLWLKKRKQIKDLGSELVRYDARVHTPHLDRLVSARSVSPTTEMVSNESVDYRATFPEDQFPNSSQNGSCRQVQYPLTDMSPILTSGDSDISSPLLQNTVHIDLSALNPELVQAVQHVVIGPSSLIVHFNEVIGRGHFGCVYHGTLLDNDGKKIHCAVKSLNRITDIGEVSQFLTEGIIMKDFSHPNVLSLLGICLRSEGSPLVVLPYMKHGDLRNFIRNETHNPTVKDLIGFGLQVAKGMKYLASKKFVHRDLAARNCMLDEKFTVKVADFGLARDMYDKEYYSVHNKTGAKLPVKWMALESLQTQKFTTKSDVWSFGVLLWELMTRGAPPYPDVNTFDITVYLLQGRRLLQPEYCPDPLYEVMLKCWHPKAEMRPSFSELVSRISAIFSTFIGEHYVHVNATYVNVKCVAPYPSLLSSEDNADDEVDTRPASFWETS
Experimental: (§1) Kinase activity and compound inhibition were investigated using the ^33P-Phosphoryl transfer radiometric kinase assay, performed using the KinaseProfiler™ service of Eurofins Pharma Discovery Services UK Limited. Dose-response experiments were performed using nine compound concentrations in a 96-well microtiter plate. For each assay, all compounds were prepared to a 50× final assay concentration (50 μM) in 100% DMSO, then diluted in a half-log series, with the final top concentration at 1 μM. This working stock of the compound was added to the assay well as the first component in the reaction, followed by the remaining components as detailed in the following assay protocols below. The positive control wells (100% kinase activity) contain all components of the reaction including 2% DMSO (control for solvent effects), except the compound of interest. Blank wells contain all components of the reaction, with the reference inhibitor, staurosporine. This reference compound was used to abolish kinase activity and generated the 0% kinase activity base-line. IC50 values were calculated by nonlinear regression analysis using the sigmoidal dose-response (variable slope) curve fit on XLFit version 5.3 (ID Business Solutions).
Example D-1: Human Met (residues R974-S1390 with A1209G and V1290L, 3.4 nM) was incubated with 8 mM MOPS pH 7.0, 0.2 mM EDTA, 250 µM […] (SEQ ID NO:3), 1 mM sodium orthovanadate, 5 mM […], 10 mM magnesium acetate, and 10 μM [γ-^33P-ATP]. The reaction was initiated by the addition of the Mg/ATP mix. After incubation for 40 minutes at room temperature, the reaction was stopped by the addition of phosphoric acid to a concentration of 0.5%. A reaction aliquot of 10 μL was then spotted onto a P30 filtermat and washed four times for 4 minutes in 0.425% phosphoric acid and once in methanol prior to drying and scintillation counting. Incorporated ^33P was measured using the Wallac Microbeta scintillation counter (Perkin Elmer).

[3] = target: Human Mer (residues R557-E882 with H628Q and R794A) (Homo sapiens, UniProt Q12866); assay: Human Mer kinase assay, 33P-phosphoryl transfer radiometric (Example C-1, KinaseProfiler); assay type: biochemical; settings: protocol of Example C-1 (compounds 21-27, 41-47, 99, 104)
Human Mer (residues R557-E882 with H628Q and R794A), sequence (Q12866 21-999 limits assumed, stated change not applied): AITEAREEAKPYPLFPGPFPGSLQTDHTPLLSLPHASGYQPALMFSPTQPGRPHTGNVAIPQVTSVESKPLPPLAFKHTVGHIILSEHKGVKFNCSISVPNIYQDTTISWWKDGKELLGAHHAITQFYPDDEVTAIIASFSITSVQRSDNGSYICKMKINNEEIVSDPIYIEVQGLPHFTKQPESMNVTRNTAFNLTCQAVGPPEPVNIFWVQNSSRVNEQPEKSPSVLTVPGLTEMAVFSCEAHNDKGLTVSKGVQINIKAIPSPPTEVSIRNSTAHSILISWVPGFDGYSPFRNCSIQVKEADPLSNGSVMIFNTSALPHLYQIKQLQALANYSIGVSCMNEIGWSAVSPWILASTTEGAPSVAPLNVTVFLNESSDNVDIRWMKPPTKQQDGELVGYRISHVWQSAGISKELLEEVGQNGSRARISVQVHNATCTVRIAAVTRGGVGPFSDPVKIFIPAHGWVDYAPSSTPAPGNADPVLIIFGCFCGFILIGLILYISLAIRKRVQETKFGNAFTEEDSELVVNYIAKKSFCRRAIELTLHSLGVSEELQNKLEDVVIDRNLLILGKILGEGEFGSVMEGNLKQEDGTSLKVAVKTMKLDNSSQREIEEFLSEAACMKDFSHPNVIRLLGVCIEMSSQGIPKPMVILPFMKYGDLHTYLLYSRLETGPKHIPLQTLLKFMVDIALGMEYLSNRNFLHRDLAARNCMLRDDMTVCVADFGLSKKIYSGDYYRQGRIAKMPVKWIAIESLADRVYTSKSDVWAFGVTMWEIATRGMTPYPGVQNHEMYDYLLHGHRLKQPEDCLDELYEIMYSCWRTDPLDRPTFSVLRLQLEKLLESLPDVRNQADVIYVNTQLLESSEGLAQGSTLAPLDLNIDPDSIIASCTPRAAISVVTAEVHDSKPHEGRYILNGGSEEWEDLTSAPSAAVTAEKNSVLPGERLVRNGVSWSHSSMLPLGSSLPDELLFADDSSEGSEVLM
Experimental: as §1
Example C-1: Human Mer (residues R557-E882 with H628Q and R794A, 0.7 nM) was incubated with 8 mM MOPS pH 7.0, 0.2 mM EDTA, 30 mM NaCl, 250 μM […] (SEQ ID NO:2), 10 mM magnesium acetate, and 10 μM [γ-^33P-ATP]. The reaction was initiated by the addition of the Mg/ATP mix. After incubation for 40 minutes at room temperature, the reaction was stopped by the addition of phosphoric acid to a concentration of 0.5%. A reaction aliquot of 10 μL was then spotted onto a P30 filtermat and washed four times for 4 minutes in 0.425% phosphoric acid and once in methanol prior to drying and scintillation counting. Incorporated ^33P was measured using the Wallac Microbeta scintillation counter (Perkin Elmer).

Mer (phospho-Mer, MERTK-transfected 293A cells), sequence (Q12866 21-999): as the sequence (Q12866 21-999 limits assumed, stated change not applied) above

Compound	IC50 [1] [nM]	IC50 [2] [nM]	IC50 [3] [nM]
COc1cc2nccc(Oc3ccc(NC(=O)c4cn(C5CC5)cc(-c5ccc(F)cc5)c4=O)cc3F)c2nc1OC [Compound 41, 1-Cyclopropyl-N-[4-[(6,7-dimethoxy-1,5-naphthyridin-4-yl)oxy]-3-fluorophenyl]-5-(4-fluorophenyl)-4-oxopyridine-3-carboxamide]	< 100	< 100	< 100
COc1cc2nccc(Oc3ccc(NC(=O)c4cncc(-c5ccc(F)cc5)c4O)cc3F)c2nc1OC [Compound 42, N-[4-[(6,7-Dimethoxy-1,5-naphthyridin-4-yl)oxy]-3-fluorophenyl]-5-(4-fluorophenyl)-4-hydroxypyridine-3-carboxamide]	< 100	< 100	< 100
COc1cc2nccc(Oc3ccc(NC(=O)c4cn(C(C)C)cc(-c5ccc(F)cc5)c4=O)cc3F)c2cc1OC [Compound 43, N-[4-(6,7-Dimethoxyquinolin-4-yl)oxy-3-fluorophenyl]-5-(4-fluorophenyl)-4-oxo-1-propan-2-ylpyridine-3-carboxamide]	< 100	< 100	< 100
COc1cc2nccc(Oc3ccc(NC(=O)c4cn(C(C)C)cc(-c5ccc(F)cc5)c4=O)cc3F)c2nc1OC [Compound 44, N-[4-[(6,7-Dimethoxy-1,5-naphthyridin-4-yl)oxy]-3-fluorophenyl]-5-(4-fluorophenyl)-4-oxo-1-propan-2-ylpyridine-3-carboxamide]	< 100	< 100	< 100
COc1cc2nccc(Oc3ccc(NC(=O)c4cn(C)cc(-c5ccc(F)cc5)c4=O)cc3F)c2nc1OC [Compound 45, N-[4-[(6,7-Dimethoxy-1,5-naphthyridin-4-yl)oxy]-3-fluorophenyl]-5-(4-fluorophenyl)-1-methyl-4-oxopyridine-3-carboxamide]	< 100	< 100	< 100
COc1cc2nccc(Oc3ccc(NC(=O)c4cn(C5CCCC5)cc(-c5ccc(F)cc5)c4=O)cc3F)c2nc1OC [Compound 46, 1-Cyclopentyl-N-[4-[(6,7-dimethoxy-1,5-naphthyridin-4-yl)oxy]-3-fluorophenyl]-5-(4-fluorophenyl)-4-oxopyridine-3-carboxamide]	< 100	< 100	< 100
COc1cc2nccc(Oc3ccc(NC(=O)c4cn(C5COC5)cc(-c5ccc(F)cc5)c4=O)cc3F)c2nc1OC [Compound 47, N-[4-[(6,7-Dimethoxy-1,5-naphthyridin-4-yl)oxy]-3-fluorophenyl]-5-(4-fluorophenyl)-1-(oxetan-3-yl)-4-oxopyridine-3-carboxamide]	< 100	< 100	< 100
CNc1ncc(C(=O)Nc2ccc(Oc3ccnc4cc(OC)c(OC)nc34)c(F)c2)c(=O)n1-c1ccc(F)cc1 [Compound 99, N-[4-[(6,7-Dimethoxy-1,5-naphthyridin-4-yl)oxy]-3-fluorophenyl]-1-(4-fluorophenyl)-2-(methylamino)-6-oxopyrimidine-5-carboxamide]	< 100	< 100	< 100
COc1cc2nccc(Oc3ccc(NC(=O)c4c[nH]c(=S)n(-c5ccc(F)cc5)c4=O)cc3F)c2nc1OC [Compound 104, N-[4-[(6,7-Dimethoxy-1,5-naphthyridin-4-yl)oxy]-3-fluorophenyl]-3-(4-fluorophenyl)-4-oxo-2-sulfanylidene-1H-pyrimidine-5-carboxamide]	< 100	> 300	> 300

From patent US12371428B2 (Exelixis, Inc., priority 2019, dated 2025)
